Where a name gives a salt, the structure may show the parent alone.
target: hSERT WT (Homo sapiens, UniProt P31645); assay: cell-based; type: cell-based; conditions: not given

Compound	EC50
NCCc1c[nH]c2c(O)c(O)c(O)cc12 [5,6,7 trihydroxytryptamine]	14.3 µM
NCCc1c[nH]c2c(O)cccc12 [7-hydroxytryptamine]	1.4 µM
OC1(c2ccc(Cl)cc2)c2ccccc2C2=NCCN21 (stereo not drawn) [Mazindol]	2.9 µM
CNCCC(Oc1ccccc1OC)c1ccccc1 (stereo not drawn) [Nisoxetine]	1.36 µM
NCCc1c[nH]c2ccccc12 [Tryptamine]	0.2 µM

same assay, conditions: read-out: EC50(μM) WT

Compound	EC50
CC(N)Cc1c[nH]c2ccc(O)cc12 (stereo not drawn) [Alpha-methylserotonin maleate]	2.2 µM
CNC(C)Cc1ccc2c(c1)OCO2 (stereo not drawn) [MDMA]	0.7 µM
COC(=O)[C@H]1C(c2ccc(I)cc2)C[C@@H]2CC[C@H]1N2C (stereo partly drawn) [RTI-55]	0.0007 µM

target: hSERT Y95F (Homo sapiens, UniProt P31645, Y95F); assay: not given; conditions: not given

Compound	recognition
NCCc1c[nH]c2ccc(O)cc12 [5HT, 5-hydroxytryptamine]	appeared normal
